According to patent US6821326B2 (Arch Chemicals, Inc., priority 2002, dated 2004):

Assays:
[1] = Particle size analysis on a Horiba Laser light scattering particle size analyzer; format: physicochemical; conditions: commercial powder before low shear mixing into xylene dispersion (Comparative Example A)
Experimental: As a comparison to the dispersions of the present invention, 13 grams “LAROFLEX MP25” polymer resin (vinyl chloride-isobutyl vinyl ether copolymer, a product of BASF Corporation, Charlotte, N.C.) was dissolved into 832 grams of xylene. […] The mixture was stirred at low speed (1000 rpm) and with low shear for 0.5 hours to provide adequate mixing until a homogenous mixture was achieved.
The diluted sample was then run though a Mini Zeta Netzsch mill for 150 minutes at 2000 rpm.

[2] = rats, powder, compared with zinc pyrithione powder; cited from earlier work

On1ccccc1=S.On1ccccc1=S.[Cu] [Copper Pyrithione, copper pyrithione]
Mean Particle Size [1]: 3.09 Microns | Median Particle Size [1]: 3.40 Microns | acute inhalation toxicity [2]: more toxic than zinc pyrithione powder
